Test results from US20100215618A1, “NOVEL COMPOUNDS - 644” (Arrow Therapeutics Limited, priority 2009, published 2010).
Like-named read-outs stand apart in the source and are kept apart here.

Experiments:
[1] = test system: HCV replicon cells Huh 9B (genotype 1b); assay: 1b Replicon Assay (luciferase readout); type: cell-based; details: Hepatitis C virus, Huh 9B replicon cells, 72 h, luciferase activity
[2] = test system: HCV replicon cells Huh 9B; type: cell-based; details: Huh 9B replicon cells, 72 h, methylene blue, total cell area reduced by 50%
Description: HCV replicon cells Huh 9B (ReBlikon), containing the firefly luciferase-ubiquitin-neomycin phosphotransferase fusion protein and EMCV-IRES driven HCV polyprotein with cell culture adaptive mutations.
Replicon cells were trypsinised and counted. Cells were diluted to 100,000 cells/ml and 100 μl used to seed one opaque white 96-well plate (for the replicon assay) and one flat-bottomed clear plate (for the tox assay) for every five compounds to be tested for IC50. Wells G12 and H12 were left empty in the clear plate as the blank. Plates were then incubated at 37° C./5% CO2 for 24 h.
On the following day compound dilutions were prepared in medium at twice their desired final concentration in a clear round bottomed plate. All dilutions have a final DMSO concentration of 1%.
Controls and compounds were transferred from the dilution plates to the assay plates (containing the cells) at 100 μl/well in duplicate wells.
Exception: no compound was added to wells A1 and A2 of either plate and 100 μl of 1% DMSO was added to these instead. Plates were then incubated at 37° C./5% CO2 for 72 h.
The clear plate was stained with 100 μA 0.5% methylene blue in 50% ethanol at room temperature for 1 h, followed by solvation of the absorbed methylene blue in 100 μl per well of 1% lauroylsarcosine. Absorbance of the plate was measured on a microplate spectrophotometer (Molecular Devices) and the absorbance for each concentration of compound expressed as a proportion of the relative DMSO control. The TD50, the is concentration of drug required to reduce the total cell area by 50% relative to the DMSO controls, was calculated by plotting the absorbance at 620 nm after background substraction against drug concentration.

[3] = in vitro; type: in vitro ADME, Canine; details: dog, MDCK
Description: Cells used: MDCK (Madin-Darby Canine Kidney) cells, ATCC collection # CCL-34, are used to model the intestinal barrier. Cell culture conditions: cells were cultured at 37° C. in a 5% CO2 environment and split twice a week on seeding at 4×10^5 cells/flask (75 cm^2) on day 1 and 2×10^5 cells/flask on day 4. The culture medium consisted of MEM+Earle's-L Glutamine (Gibco #21090-022) supplemented with 10% Australian Fetal Calf Serum (Sigma #F6178), 2 mM L-Glutamine (Gibco #25030-024) and 1× Non Essential Amino Acids (Gibco #11140-035)
On day 1, a 24-well plate (Sarstedt, #83.1836.300) was filled with individual 3 lam pore membrane inserts (Millipore, #PITP 012 50). Each plate allows the testing of a cocktail of 3 control compounds and 11 test compounds in duplicate. The wells (outside the inserts) were filled with 500 μl of culture medium.
A flask of cells was trypsinised and a cell count carried out. Cells were diluted to 1.2×10^5 cells/ml (1×10^5 cells/cm^2) and 500 μl dispensed in each insert on the 24-well plate. The plate was incubated at 37° C. in a 5% CO2 environment for 48 hours.
On day 3, the culture medium was removed from the wells, then the inserts and is replaced with fresh culture medium in the wells, then the inserts (500111 per well and insert) The plate was incubated at 37° C. in a 5% CO2 environment for 24 hours.
On day 4, the controls cocktail and test compounds solutions were made up in HBSS buffer (Hank's Balanced Salt Solution, Gibco #14025-050) at 1011M. The final controls and test compounds concentration in the assay was 10 μM, and DMSO concentration maintained at 0.1% (0.3% for the controls cocktail). The controls cocktail was made up of Atenolol (Sigma # A-7655), Dexamethasone (Sigma #D-1756) and Propranolol (Sigma # P-0884).
A 24-well plate was filled with 500 μl of HBSS buffer per well (assay plate) The culture medium was removed from the wells and inserts. The inserts were washed three times with approximately 500 μl of HBSS buffer. The inserts were transferred to the assay plate. Controls cocktail and test compounds solutions were dispensed inside the inserts (500 μl per insert), in duplicates. The assay plate was incubated at 37° C. in a 5% CO2 environment for 2 hours.
After 2 hours, the inserts were removed from the assay plate and transferred into a new 24-well plate (wash plate) The assay plate containing the receiver solutions was left aside for later sampling. To measure the mass balance, 150 μl were sampled from each insert (donor solutions) and dispensed into 150 μl of HPLC-grade Acetonitrile (Fisher Scientific) containing an internal standard and 0.05% formic acid.
The donor solutions were aspirated and discarded from each insert, and the inserts washed once with approximately 500 μl of HBSS buffer. A 24-well plate was filled with 500 μl of HBSS buffer per well (monolayer integrity plate) A Lucifer Yellow (Sigma #L0144) solution was made up at 1001.1M in HBSS buffer. The empty inserts were transferred into the monolayer integrity plate and filled with 500 μl of the Lucifer Yellow solution to determine the cell monolayers integrity and leftover of the solution was kept in a fridge. The plate was incubated at 37° C. in a 5% CO2 environment for 2 hours.
In the meantime, 150 μl were sampled from the assay plate (receiver solutions) and dispensed into 150 μl of HPLC-grade Acetonitrile containing an internal standard and 0.05% formic acid. A calibration curve was made for each mix of compounds (as appropriate depending on compounds molecular weights) A 10 μM mix of compounds in HBSS buffer was diluted 1:1 in HPLC-grade Acetonitrile containing an internal standard and 0.05% formic acid. A 1:1 mix of HBSS buffer and HPLC-grade Acetonitrile containing an internal standard and 0.05% formic acid was made up and used to make up the calibration curve (2 fold dilutions), with concentrations ranging from 10 μM to 0.078 μM. […]

## COC(=O)N[C@H](C(=O)N1CCC[C@H]1c1ncc(-c2ccc(-c3ccc(C(=O)Nc4ccc(CN5CCS(=O)(=O)CC5)cc4)cc3)cc2)[nH]1)[C@@H](C)O [Example 17, Methyl N-[(1S,2R)-1-[(2S)-2-[5-[4-[4-[[4-[(1,1-dioxo-1,4-thiazinan-4-yl)methyl]phenyl]carbamoyl]phenyl]phenyl]-1H-imidazol-2-yl]pyrrolidine-1-carbonyl]-2-hydroxy-propyl]carbamate]
[1]; read-out: HCV IC50 1b Replicon
  IC50: 0.3 nM
[1]; read-out: pIC50 1b Replicon (converted)
  IC50: 0.302 nM
[2]
  HCV TD50 Replicon: 18.4 µM
[3]
  Papp at 2 h, 10 µM: 0.4 ×10⁻⁶ cm/s
